# Read-outs that look alike come from different tables or passages of the source.
# Legend:
# [1] = tested on: patients with advanced solid tumors; conditions: cited from earlier work
# [2] = tested on: QTcF interval in patients with advanced solid tumors; conditions: human, in vivo
# Excerpt: Estimates were made of the mean change in QTcF at the geometric mean Cmax on days 1 and 3 from the fitted model, with corresponding 90% two-sided confidence intervals (CIs).
# [3] = tested on: patients with advanced solid tumors; conditions: human, in vivo
# Excerpt: (§1) Safety was appraised throughout the study by the assessment of adverse events (AEs; graded by Common Terminology Criteria for Adverse Events [CTCAE], version 4.03), physical examination, and evaluation of vital signs, ECG, and laboratory data (clinical chemistry and hematology). Dose reductions were not allowed.
# patients = tested on: patients; set-up: method as in AstraZeneca, data on file, 2022; conditions: preliminary data; ref AstraZeneca, data on file, 2022; cited from earlier work
# [4] = Plasma pharmacokinetics of adavosertib
# [5] = tested on: ECG intervals in patients with advanced solid tumors; conditions: human, in vivo
# Experimental: (§2) On day − 2, patients underwent dECG to determine eligibility by central review. On day − 1, baseline dECG assessments were performed at clock times matched to the planned/scheduled dECG assessment times on days 1 and 3. […] Doses were administered under fasting conditions (2 h pre-dose to 2 h post-dose), with prescribed anti-emetic(s) given orally 30 min prior to each dose [20].
# (§3) Patients had their final dECG/PK assessments on day 4, 24 h post-dose. Baseline for dECG assessments was defined as the time-matched observation on day − 1. Triplicate dECG recordings were taken within an approximate 5-min period prior to PK sample collection and as close to the scheduled times as possible. Patients rested for ≥ 10 min prior to dECG recording and were in the same supine body position for all recordings. HR and RR, QT, PR, and QRS interval parameters were recorded. Standardized equipment was provided by the central ECG laboratory. Recorded dECGs were sent to the central ECG laboratory for review and interpretation, using their standard operating procedures and with manual adjudication (3 beat on lead II).
# [6] = set-up: method as in doi:10.1158/1538-7445.am2019-ct012; conditions: after 200 mg bid dosing; cited from earlier work
# [7] = tested on: patients with advanced solid tumors; assay: Safety and tolerability (adverse events, CTCAE version 4.03); conditions: n = 21
# Excerpt: as §1
# [8] = tested on: ECG intervals in patients with advanced solid tumors; assay: Digital 12-lead ECG (dECG) assessments, time-matched change from baseline; conditions: over the treatment period (days 1–3, 24 h post-dose)
# Experimental: as §2, §3
# QTc interval = conditions: in vivo; cited from earlier work
# [9] = human, in vivo, 225 mg, 2.5 days
compound,measurement,setting,value
C=CCn1c(=O)c2cnc(Nc3ccc(N4CCN(C)CC4)cc3)nc2n1-c1cccc(C(C)(C)O)n1 [adavosertib],Dose proportionality of exposure,"[1]; qd dosing, between 200 and 300 mg, single and multiple doses, preliminary",exposure increased more than dose proportionally
same,Maximum tolerated dose,[1]; twice daily (bid) over 2.5 days per week per 21-day cycle,225 mg
same,"Day effect estimate, concentration–ΔQTcF model",[2],−1.6
same,"Intercept estimate, concentration–ΔQTcF model",[2],−2.4
same,"Upper limits of predicted 90% CIs for ΔQTcF, sensitivity analysis",[2],< 1.5 ms
same,Causally related AEs of any grade: Anemia,[3],1 (4.8) Number of patients (%)
same,Causally related AEs of any grade: Constipation,[3],1 (4.8) Number of patients (%)
same,Causally related AEs of any grade: Decreased appetite,[3],1 (4.8) Number of patients (%)
same,Causally related AEs of any grade: Diarrhea,[3],6 (28.6) Number of patients (%)
same,Causally related AEs of any grade: Vomiting,[3],2 (9.5) Number of patients (%)
same,Causally related grade ≥3 AEs: Anemia,[3],1 (4.8) Number of patients (%)
same,Causally related grade ≥3 AEs: Constipation,[3],0 Number of patients (%)
same,Causally related grade ≥3 AEs: Decreased appetite,[3],0 Number of patients (%)
same,Causally related grade ≥3 AEs: Diarrhea,[3],1 (4.8) Number of patients (%)
same,Causally related grade ≥3 AEs: Nausea,[3],1 (4.8) Number of patients (%)
same,Causally related grade ≥3 AEs: Vomiting,[3],1 (4.8) Number of patients (%)
same,Causally related AEs of any grade: Any AE,[3]; 2.5 days,11 (52.4) Number of patients (%)
same,Causally related AEs of any grade: Nausea,[3]; 2.5 days,6 (28.6) Number of patients (%)
same,Causally related grade ≥3 AEs: Any AE,[3]; 2.5 days,2 (9.5) Number of patients (%)
same,Patients who discontinued treatment because of AEs,[3]; 2.5 days,9.5%
same,Patients with AEs,[3]; 2.5 days,76.2%
same,Patients with CTCAE grade 3 anemia,[3]; 2.5 days,4.8%
same,Patients with CTCAE grade 3 diarrhea,[3]; 2.5 days,4.8%
same,Patients with CTCAE grade 3 hypotension,[3]; 2.5 days,4.8%
same,Patients with CTCAE grade 3 nausea,[3]; 2.5 days,4.8%
same,"Patients with a serious AE (vomiting, not considered drug related)",[3]; 2.5 days,4.8%
same,Patients with diarrhea (any causality),[3]; 2.5 days,33.3%
same,Patients with nausea (any causality),[3]; 2.5 days,33.3%
same,Patients with treatment-related AEs,[3]; 2.5 days,52.4%
same,Patients with treatment-related anemia,[3]; 2.5 days,4.8%
same,Patients with treatment-related constipation,[3]; 2.5 days,4.8%
same,Patients with treatment-related decreased appetite,[3]; 2.5 days,4.8%
same,Patients with treatment-related diarrhea,[3]; 2.5 days,28.6%
same,Patients with treatment-related nausea,[3]; 2.5 days,28.6%
same,Patients with treatment-related vomiting,[3]; 2.5 days,9.5%
same,Patients with vomiting (any causality),[3]; 2.5 days,23.8%
same,Total number of treatment-related AEs,[3]; 2.5 days,17
same,Adverse drug reactions to adavosertib monotherapy,patients,include QTc prolongation
same,"CLss/F, arithmetic mean (SD)",[4]; day 3,43.2 L/h
same,"CLss/F, median",[4]; day 3,41.5 L/h
same,"AUC0–12, median","[4]; human, in vivo",5.383 µM·h
same,"Cavg, arithmetic mean (SD)","[4]; human, in vivo",944.8 nM
same,"Cavg, geometric mean","[4]; human, in vivo",901.2 nM
same,"Cavg, median","[4]; human, in vivo",898.9 nM
same,"Cmin, arithmetic mean (SD)","[4]; human, in vivo",517.7 nM
same,"Cmin, geometric mean","[4]; human, in vivo",410.4 nM
same,"Cmin, median","[4]; human, in vivo",499.0 nM
same,Tmax,"[4]; human, in vivo",3 h
same,"tmax, median","[4]; human, in vivo",2.5 h
same,Accumulation for AUC0–12 over 2.5 days of bid dosing,[4]; [9],approximately 2.3 fold
same,Accumulation for Cmax over 2.5 days of bid dosing,[4]; [9],~2.1 fold
same,AUC(0-t),"[4]; human, in vivo, AUC0–12, arithmetic mean (SD)",11.3 µM·h
same,AUC(0-t),"[4]; human, in vivo, AUC0–12, median",10.6 µM·h
same,Cmax,"[4]; human, in vivo, arithmetic mean (SD)",1500 nM
same,Cmax,"[4]; human, in vivo, median",1520 nM
same,AUC(0-t),"[4]; human, in vivo, po, 225 mg, AUC0–12, geometric mean",4.94 µM·h
same,"Mean change in HR, range over time points",[5]; 1 day,− 1.7 to 2.9
same,"Mean change in PR interval, range over time points",[5]; 1 day,− 4.4 to 3.5
same,"Mean change in QRS interval, range over time points",[5]; 1 day,− 1.2 to 1.4
same,"Mean change in RR interval, range over time points",[5]; 1 day,− 38.0 to 22.3
same,Patients with QTcF increase > 60 ms at any time during treatment,[5]; 1 day,0 n (%)
same,Patients with QTcF value > 450 ms and increase > 30 ms,[5]; 1 day,0 n (%)
same,Patients with QTcF value > 450 ms at any time during treatment,[5]; 1 day,0 n (%)
same,Patients with QTcF value > 480 ms at any time during treatment,[5]; 1 day,0 n (%)
same,Patients with QTcF value > 500 ms and increase > 60 ms,[5]; 1 day,0 n (%)
same,Patients with QTcF value > 500 ms at any time during treatment,[5]; 1 day,0 n (%)
same,"Mean change in HR, range over time points",[5]; 3 day,1.4 to 9.5 bpm
same,"Mean change in PR interval, range over time points",[5]; 3 day,− 4.4 to 0.3
same,"Mean change in QRS interval, range over time points",[5]; 3 day,− 1.8 to − 2.0
same,"Mean change in RR interval, range over time points",[5]; 3 day,− 102.5 to − 30.4
same,Patients with QTcF increase > 30 ms at any time during treatment,[5]; 3 day,1 (4.8) n (%)
same,Patients with QTcF increase > 60 ms at any time during treatment,[5]; 3 day,0 n (%)
same,Patients with QTcF value > 450 ms and increase > 30 ms,[5]; 3 day,0 n (%)
same,Patients with QTcF value > 450 ms at any time during treatment,[5]; 3 day,0 n (%)
same,Patients with QTcF value > 480 ms at any time during treatment,[5]; 3 day,0 n (%)
same,Patients with QTcF value > 500 ms and increase > 60 ms,[5]; 3 day,0 n (%)
same,Patients with QTcF value > 500 ms at any time during treatment,[5]; 3 day,0 n (%)
same,AUC0–12,[6],8.1 µM·h
same,AEs with an outcome of death,[7],No AEs with an outcome of death
same,Patients with QTcF > 450 ms,[8],No patient
same,Patients with increase in QTcF of > 60 ms,[8],No patient
CN[C@H]1CC[C@@H](c2ccc(Cl)c(Cl)c2)c2ccccc21 [sertraline],Risk of TdP,QTc interval,conditional risk of TdP

# — publication PMC10326086 (Cancer Chemotherapy and Pharmacology, 2023)
